Results published in patent US6946467B2, “Serine protease inhibitors” (Eli Lilly and Company, priority 2000, dated 2005).
Structures can show the parent of a compound that is named as a salt.

| SMILES | melting point |
| --- | --- |
| Cl.O=C(N[C@@H](C(=O)N1CCN(CCc2nccs2)CC1)c1ccccc1)c1ccc2cc[nH]c2c1 | 135 to 142 °C (dec.) |
| Cl.N#Cc1cc(CCN2CCN(C(=O)[C@H](NC(=O)c3ccc4cc[nH]c4c3)c3ccccc3)CC2)ccn1 | 156 to 169 °C |
| COc1ccc(C(=O)N[C@@H](C(=O)N2CCN(CCC3CCCC3)CC2)c2ccccc2)cc1 (as salt: hydrochloride) [Example 30, 1-(4-Methoxybenzoyl-D-phenylglycinyl)-4-(2-cyclopentylethyl)piperazine] | 190 to 192 °C |
| O=C(N[C@@H](C(=O)N1CCN(CCc2ccncc2F)CC1)c1ccccc1)c1ccc2cc[nH]c2c1 [Example 58a, 1-[Indole-6-carbonyl-D-phenylglycinyl]-4-[2-(3-fluoropyridin-4-yl)ethyl]piperazine] | 135 to 145 °C (dec.) |
